Earlier results, collected in patent publication US9855513B2, “Method for producing concentrated aqueous solution of organic compound” (Kao Corporation, priority 2012, dated 2018).

Conditions: in a water of 100 g at 25° C.

## OCC(O)CO [glycerol]
  solubility degree: ∞
